# Experimental data: PMC10066365, “Nemacol is a small molecule inhibitor of C. elegans vesicular acetylcholine transporter with anthelmintic potential” (Nature Communications, 2023)
# Several values for one entry are separate records, joined by “and”; a condition that tells them apart may be missing. Equal entries are not always repeated. Where two headings read alike, the source gives them in different places.
# Key:
# C. elegans DA1316 = test: C. elegans 3-day liquid viability assay, DA1316 avr-14; avr-15; […]; type: in vivo, Caenorhabditis elegans; conditions: DA1316, nemacol-1 0
# Haemonchus contortus = Haemonchus contortus L3 Migration Trap Assay (motility, 24 h exposure); conditions: hc weybridge, 24 h; for raw: raw motility readout
# C. elegans = C. elegans 3-day liquid viability assay, Nemacol-1 x Ivermectin matrix, wild type; conditions: for development average norm L4/As / viability Avg / average progress to L4 (development) / average viability (relative to control): N2; for average progress to L4 (development) / average viability (relative to control): Nemacol-1-1 0; for nemacol-1 x ivermectin matrix dose-response raw data: wt (N2) + 0 uM nemacol, 3 replicate columns
# C. elegans unc-17(e245) = conditions: for development average norm L4/As / viability Avg: CB245 unc-17(e245); for nemacol-1 x ivermectin matrix dose-response raw data: unc-17(e245) + 0 uM nemacol, 3 replicate columns
# [1] = ivermectin 0.0195312 µM + Nemacol_53 26.4 µM
# [2] = ivermectin 0.0195312 µM + Nemacol_53 16.8 (unit not given)
# [3] = ivermectin 0.078125 µM + Nemacol_53 26.4 µM
# [4] = ivermectin 0.078125 µM + Nemacol_53 16.8 (unit not given)
# [5] = ivermectin 5 µM + Nemacol_53 16.8 (unit not given)
# [6] = ivermectin 0.00046875 uM (Fig. 5AC sheet)
# [7] = ivermectin 0.0009375 uM (Fig. 5AC sheet)
# [8] = ivermectin 0.001875 uM (Fig. 5AC sheet)
# [9] = ivermectin 0.00375 uM (Fig. 5AC sheet)
# [10] = ivermectin 0.03 uM (Fig. 5AC sheet)
# [11] = ivermectin 0.06 uM (Fig. 5AC sheet)
# [12] = ivermectin 0.001875 uM (row head 1.875)
# [13] = ivermectin 0.00375 uM (row head 3.75)
# [14] = ivermectin 0.06 uM (row head 60)
compound,measurement,setting,value
CC[C@H](C)[C@H]1O[C@]2(CC[C@@H]1C)C[C@@H]1C[C@@H](C/C=C(\C)[C@@H](O[C@H]3C[C@H](OC)[C@@H](O[C@H]4C[C@H](OC)[C@@H](O)[C@H](C)O4)[C@H](C)O3)[C@@H](C)/C=C/C=C3\CO[C@@H]4[C@H](O)C(C)=C[C@@H](C(=O)O1)[C@]34O)O2 [ivermectin],total animals normalized to corresponding controls,C. elegans DA1316; ivermectin 0.0009375 uM,111.56
same,total animals normalized to corresponding controls,C. elegans DA1316; ivermectin 0.001875 uM,102.36
same,total animals normalized to corresponding controls,C. elegans DA1316; ivermectin 0.00375 uM,113.75
same,total animals normalized to corresponding controls,C. elegans DA1316; ivermectin 0.03 uM,108.02
same,total animals normalized to corresponding controls,C. elegans DA1316; ivermectin 0.06 uM,93.85
same,efficacy,Haemonchus contortus; [1],51.6335 and 46.2111 and 62.2283
same,efficacy,Haemonchus contortus; [2],45.9092 and 67.7834 and 50.4898
same,efficacy,Haemonchus contortus; [3],64.6293 and 71.8721 and 59.357
same,efficacy,Haemonchus contortus; [4],51.0321 and 52.0838 and 33.3542
same,efficacy,Haemonchus contortus; ivermectin 0.078125 µM alone,36.1803 and 63.8058 and 55.3013
same,efficacy,Haemonchus contortus; ivermectin 0.3125 µM + Nemacol_53 26.4 µM,79.9766 and 60.2317 and 86.7864
same,efficacy,Haemonchus contortus; ivermectin 0.3125 µM + Nemacol_53 16.8 (unit not given),66.3699 and 69.3635 and 88.9679
same,efficacy,Haemonchus contortus; ivermectin 0.3125 µM alone,59.3102 and 77.8029 and 70.3944
same,efficacy,Haemonchus contortus; ivermectin 1.25 µM + Nemacol_53 26.4 µM,80.8981 and 87.2376 and 93.0175
same,efficacy,Haemonchus contortus; ivermectin 1.25 µM + Nemacol_53 16.8 (unit not given),94.1091 and 79.6798 and 82.4964
same,efficacy,Haemonchus contortus; ivermectin 1.25 µM alone,87.3643 and 74.9707 and 86.5339
same,efficacy,Haemonchus contortus; ivermectin 5 µM + Nemacol_53 26.4 µM,82.4313 and 91.8131 and 94.4761
same,efficacy,Haemonchus contortus; [5],92.0083 and 91.7168 and 89.2099
same,efficacy,Haemonchus contortus; ivermectin 5 µM alone,83.6288 and 93.388 and 88.8663
same,efficacy,Haemonchus contortus; ivermectin 20 µM + Nemacol_53 26.4 µM,86.7838 and 88.1791 and 95.9929
same,efficacy,Haemonchus contortus; ivermectin 20 µM + Nemacol_53 16.8 (unit not given),95.5746 and 77.0116 and 89.754
same,efficacy,Haemonchus contortus; ivermectin 20 µM alone,95.1061 and 89.4651 and 83.7772
same,raw,Haemonchus contortus; ivermectin 0.0012207 µM + Nemacol_53 26.4 µM,51596.5 and 71143.5 and 66277.5
same,raw,Haemonchus contortus; ivermectin 0.0012207 µM + Nemacol_53 16.8 (unit not given),67834.5 and 50419 and 52275.5
same,raw,Haemonchus contortus; ivermectin 0.0012207 µM alone,49240 and 71073.5 and 61317
same,raw,Haemonchus contortus; ivermectin 0.00488281 µM + Nemacol_53 26.4 µM,28751.5 and 44196 and 37912.5
same,raw,Haemonchus contortus; ivermectin 0.00488281 µM alone,43303 and 44672.5 and 57159.5
same,raw,Haemonchus contortus; [1],27870 and 30994.5 and 21765
same,raw,Haemonchus contortus; [2],31168.5 and 18564 and 28529
same,raw,Haemonchus contortus; ivermectin 0.0195312 µM alone,32641 and 25525.5 and 49250.5
same,raw,Haemonchus contortus; [3],20381.5 and 16208 and 23419.5
same,raw,Haemonchus contortus; [4],28216.5 and 27610.5 and 38403
same,raw,Haemonchus contortus; ivermectin 0.078125 µM alone,36774.5 and 20856 and 25756.5
same,raw,Haemonchus contortus; ivermectin 0.3125 µM alone,23446.5 and 12790.5 and 17059.5
same,raw,Haemonchus contortus; ivermectin 1.25 µM alone,7281 and 14422.5 and 7759.5
same,raw,Haemonchus contortus; [5],4605 and 4773 and 6217.5
same,development average norm L4/As,C. elegans; [6],99.0
same,viability Avg,C. elegans; [6],0.99
same,development average norm L4/As,C. elegans; [7],105.0
same,viability Avg,C. elegans; [7],1.05
same,average progress to L4 (development),C. elegans; ivermectin 0.0009375 uM,107.265
same,average viability (relative to control),C. elegans; ivermectin 0.0009375 uM,1.077
same,development average norm L4/As,C. elegans; [8],102.7
same,viability Avg,C. elegans; [8],1.03
same,average progress to L4 (development),C. elegans; ivermectin 0.001875 uM,88.2297
same,average viability (relative to control),C. elegans; ivermectin 0.001875 uM,0.8852
same,development average norm L4/As,C. elegans; [9],101.8
same,viability Avg,C. elegans; [9],1.03
same,average progress to L4 (development),C. elegans; ivermectin 0.00375 uM,85.4056
same,average viability (relative to control),C. elegans; ivermectin 0.00375 uM,0.8507
same,development average norm L4/As,C. elegans; [10],33.1
same,viability Avg,C. elegans; [10],0.89
same,average progress to L4 (development),C. elegans; ivermectin 0.03 uM,25.8319
same,average viability (relative to control),C. elegans; ivermectin 0.03 uM,0.6373
same,development average norm L4/As,C. elegans; [11],0.0
same,viability Avg,C. elegans; [11],0.11
same,average progress to L4 (development),C. elegans; ivermectin 0.06 uM,0
same,average viability (relative to control),C. elegans; ivermectin 0.06 uM,0.09164
same,nemacol-1 x ivermectin matrix dose-response raw data,C. elegans; [12],131.9 and 90.0 and 88.0
same,nemacol-1 x ivermectin matrix dose-response raw data,C. elegans; [13],106.4 and 120.0 and 114.0
same,nemacol-1 x ivermectin matrix dose-response raw data,C. elegans; ivermectin 0.03 uM (row head 30),48.9 and 56.7 and 24.0
same,nemacol-1 x ivermectin matrix dose-response raw data,C. elegans; [14],12.8 and 13.3 and 2.0
same,development average norm L4/As,C. elegans unc-17(e245); ivermectin 0.00046875 uM,91.4
same,viability Avg,C. elegans unc-17(e245); ivermectin 0.00046875 uM,0.92
same,development average norm L4/As,C. elegans unc-17(e245); ivermectin 0.0009375 uM,102.0
same,viability Avg,C. elegans unc-17(e245); ivermectin 0.0009375 uM,1.02
same,development average norm L4/As,C. elegans unc-17(e245); ivermectin 0.001875 uM,96.6
same,viability Avg,C. elegans unc-17(e245); ivermectin 0.001875 uM,0.97
same,development average norm L4/As,C. elegans unc-17(e245); ivermectin 0.00375 uM,94.6
same,viability Avg,C. elegans unc-17(e245); ivermectin 0.00375 uM,0.95
same,development average norm L4/As,C. elegans unc-17(e245); ivermectin 0.03 uM,1.1
same,viability Avg,C. elegans unc-17(e245); ivermectin 0.03 uM,0.03
same,development average norm L4/As,C. elegans unc-17(e245); ivermectin 0.06 uM,0.0
same,viability Avg,C. elegans unc-17(e245); ivermectin 0.06 uM,0.00
same,nemacol-1 x ivermectin matrix dose-response raw data,C. elegans unc-17(e245); [12],100.0 and 98.2 and 92.0
same,nemacol-1 x ivermectin matrix dose-response raw data,C. elegans unc-17(e245); [13],94.6 and 102.2 and 87.1
same,nemacol-1 x ivermectin matrix dose-response raw data,C. elegans unc-17(e245); [14],0.0
